Read-outs that look alike come from different tables or passages of the source.
Key:
[1] = molecular target: T1, Oxytocin (Homo sapiens, UniProt P30559); assay: NovaScreen assay; type: binding; conditions: read-out: Inhibition, 10 μM XL-647
T1 construct: NovaScreen

[2] = test system: PCK rat; type: in vivo; conditions: for CT-CI / Creatinine / Kidney/Body weight: PN Day 90
Source text: The phenotype of the PCK rat is different from that of humans in that it has a slower disease progression and slower decline in renal function. The PCK rats came from a mutated colony of Sprague-Dawley rats from Fujita Health University and were housed at the Medical College of Wisconsin.
Two hours after last injection on PN90 the rats were sacrificed and the kidneys and liver were removed and weighed. Post-mortem measurements included KW/BW ratio and cystic index (CI) using renal sections from the cortex, medulla, and papilla. CT-CI was then determined from cystic index which was based on renal cyst size at 15 day intervals from PN0 to PN135. Renal function was assessed with BUN and creatinine levels from cardiac puncture.

[3] = Clinical safety data, 159 subjects with cancer; conditions: human, in vivo
[4] = molecular target: T2, Vasopressin 1 (Homo sapiens, UniProt P37288); assay: NovaScreen assay; type: binding; conditions: read-out: Inhibition, 10 μM XL-647
T2 construct: NovaScreen
T2 sequence (P37288 whole entry): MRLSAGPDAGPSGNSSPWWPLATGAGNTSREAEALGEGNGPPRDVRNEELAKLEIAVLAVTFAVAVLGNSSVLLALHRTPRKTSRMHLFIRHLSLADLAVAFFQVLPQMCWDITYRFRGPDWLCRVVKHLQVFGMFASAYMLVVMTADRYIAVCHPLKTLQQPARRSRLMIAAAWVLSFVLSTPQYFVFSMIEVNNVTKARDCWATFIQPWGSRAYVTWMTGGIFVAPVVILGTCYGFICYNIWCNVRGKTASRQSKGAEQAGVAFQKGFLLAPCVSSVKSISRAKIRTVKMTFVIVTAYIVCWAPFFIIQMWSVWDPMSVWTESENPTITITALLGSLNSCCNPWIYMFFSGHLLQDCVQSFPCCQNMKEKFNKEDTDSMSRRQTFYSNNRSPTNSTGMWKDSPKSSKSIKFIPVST

[5] = test system: Glycine, Strychnine-sensitive; assay: NovaScreen assay; type: binding
[6] = molecular target: T3, Dopamine Transporter (Homo sapiens, UniProt Q01959); assay: NovaScreen assay; type: binding
T3 construct: NovaScreen
T3 sequence (Q01959 whole entry): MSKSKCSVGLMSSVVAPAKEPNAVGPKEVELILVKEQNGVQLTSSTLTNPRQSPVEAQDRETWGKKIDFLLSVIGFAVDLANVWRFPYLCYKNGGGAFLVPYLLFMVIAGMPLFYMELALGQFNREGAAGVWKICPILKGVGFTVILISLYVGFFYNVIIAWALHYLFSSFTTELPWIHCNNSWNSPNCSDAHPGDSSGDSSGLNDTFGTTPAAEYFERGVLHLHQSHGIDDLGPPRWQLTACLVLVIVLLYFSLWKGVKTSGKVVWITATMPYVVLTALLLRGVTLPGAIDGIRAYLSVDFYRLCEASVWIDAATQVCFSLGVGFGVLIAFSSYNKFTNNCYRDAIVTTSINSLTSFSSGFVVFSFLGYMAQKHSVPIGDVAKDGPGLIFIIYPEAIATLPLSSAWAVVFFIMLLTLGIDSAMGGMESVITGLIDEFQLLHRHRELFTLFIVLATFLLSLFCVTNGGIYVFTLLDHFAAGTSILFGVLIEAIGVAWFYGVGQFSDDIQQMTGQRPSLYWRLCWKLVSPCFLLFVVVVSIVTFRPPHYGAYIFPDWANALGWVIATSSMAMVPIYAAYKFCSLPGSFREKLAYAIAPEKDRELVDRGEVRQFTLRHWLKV

[7] = molecular target: T4, Thyrotropin Releasing Hormone, TRH (Homo sapiens, UniProt P34981); assay: NovaScreen assay; type: binding; conditions: read-out: Inhibition, 10 μM XL-647
T4 construct: NovaScreen
T4 sequence (P34981 whole entry): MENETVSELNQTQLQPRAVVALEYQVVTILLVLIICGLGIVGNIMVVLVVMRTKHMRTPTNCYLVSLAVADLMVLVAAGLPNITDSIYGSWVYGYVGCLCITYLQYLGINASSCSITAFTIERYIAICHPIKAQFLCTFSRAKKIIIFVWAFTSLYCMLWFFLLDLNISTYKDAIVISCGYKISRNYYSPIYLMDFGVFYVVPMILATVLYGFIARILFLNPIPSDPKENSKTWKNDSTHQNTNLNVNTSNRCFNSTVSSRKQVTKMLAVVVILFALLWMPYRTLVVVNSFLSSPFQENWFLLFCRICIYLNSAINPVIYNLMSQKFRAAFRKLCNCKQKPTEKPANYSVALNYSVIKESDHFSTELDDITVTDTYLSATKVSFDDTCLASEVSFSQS

[8] = molecular target: EGFR WT (pCMV/Lx-1) (Homo sapiens, UniProt P00533); assay: EGFR phosphorylation ELISA in transfected Lx-1 cells
Source text: Lx-1 cells were used because they lack background EGFR activity. A clone corresponding to the longest EGFR isoform (Genbank accession no. NM_005228.3/NP_005219.2 #21-176, Upstate Biotechnology) was used as a template to produce two mutant EGFR genes (coding for L858R and L861Q) by site-directed mutagenesis. The WT and the two sequence-verified mutants were transferred to a COOH-terminal Flag-tagged retroviral cytomegalovirus promoter-driven mammalian expression vector. The two Tet-On expression vectors, EGFR WT (Tet-On) and EGFRvIII (Tet-On), which were COOH-terminally Flag tagged, were generously provided by Dr. Abhijit Guha (University of Toronto, Toronto, Ontario, Canada).
Transient transfections of Lx-1 cells were done using Lipofectamine 2000 (Invitrogen) according to the manufacturer's protocol. For transfections of the WT, L858R, and L861Q constructs, 1 μg plasmid DNA was used for each transfection (each well of a 12-well plate). […]
For the EGFR phosphorylation ELISA, Reacti-Bind streptavidin-coated plates (Pierce) were coated with 2 μg/mL biotin-conjugated anti-Flag antibody (Sigma). […] Horseradish peroxidase activity was determined by reading the plates in a Victor2 plate reader following addition of the ELISA Femto substrate.

[9] = molecular target: T5, Norepinephrine Transporter (Homo sapiens, UniProt P23975); assay: NovaScreen assay; type: binding; conditions: read-out: Inhibition, 10 μM XL-647
T5 construct: NovaScreen

[10] = molecular target: T6, EphA2 (Homo sapiens, UniProt P29317); assay: Chemiluminescent kinase assay; type: biochemical
T6 construct: Human, N598-; mM MgCl2, 3 mM MnCl2,; R890, N-His6; His6 (N)
T6 sequence (P29317 598-890): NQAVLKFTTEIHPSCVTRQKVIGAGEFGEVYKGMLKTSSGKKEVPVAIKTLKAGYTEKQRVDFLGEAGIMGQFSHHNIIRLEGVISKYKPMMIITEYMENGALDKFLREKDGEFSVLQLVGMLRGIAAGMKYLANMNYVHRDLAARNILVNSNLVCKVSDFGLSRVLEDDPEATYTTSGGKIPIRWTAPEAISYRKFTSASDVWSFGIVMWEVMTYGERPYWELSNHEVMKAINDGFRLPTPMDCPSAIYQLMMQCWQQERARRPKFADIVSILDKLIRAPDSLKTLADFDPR
Protocol: A Luciferase-coupled chemiluminescence assay was used to measure EGFR and KDR (VEGFR2) activity. Kinase activity was measured as the percentage of ATP consumed following the kinase reaction using luciferase-luciferin-coupled chemiluminescence. Reactions were conducted in 384-well white, medium-binding microtiter plates (Greiner). […] The reaction mixture was incubated at room temperature for 4 h. Following the kinase reaction, a 20 μL aliquot of Kinase Glo (Promega) was added and luminescence signal was measured using a Victor2 plate reader (Perkin-Elmer). Total ATP consumption was limited to 50%.

[11] = molecular target: CYP3A4 (Homo sapiens, UniProt P08684); conditions: microsomes
Chain of CYP3A4 (P08684 whole entry): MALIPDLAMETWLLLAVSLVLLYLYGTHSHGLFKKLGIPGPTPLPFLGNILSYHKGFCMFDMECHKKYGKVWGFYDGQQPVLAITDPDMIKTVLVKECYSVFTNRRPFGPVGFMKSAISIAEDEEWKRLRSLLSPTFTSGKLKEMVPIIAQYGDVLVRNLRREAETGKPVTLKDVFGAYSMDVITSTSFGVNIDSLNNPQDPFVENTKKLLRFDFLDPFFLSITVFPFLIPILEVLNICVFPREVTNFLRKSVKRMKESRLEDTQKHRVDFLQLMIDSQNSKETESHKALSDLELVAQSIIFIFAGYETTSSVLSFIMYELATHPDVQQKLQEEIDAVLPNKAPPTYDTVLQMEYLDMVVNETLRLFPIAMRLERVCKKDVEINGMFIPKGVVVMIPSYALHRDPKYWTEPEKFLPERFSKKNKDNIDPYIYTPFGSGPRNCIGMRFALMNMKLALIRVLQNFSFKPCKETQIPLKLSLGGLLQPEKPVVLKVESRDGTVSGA

[12] = test system: Glutamate, NMDA Agonist Site; assay: NovaScreen assay; type: binding
[13] = human, in vivo
Protocol: Food effect on bioavailability was analyzed.

[14] = test system: HN5 human tumor xenograft; assay: HN5 xenograft, tumor growth; type: in vivo; conditions: Mus musculus; qd × 14
Protocol: The response of tumors to treatment was determined by comparing the mean tumor weight of the treatment group with the appropriate control group. Percentage inhibition of tumor growth was determined with the following formula: Percentage inhibition=100×[1−(Xf−Xo)/(Yf−Yo)], where Xf and Yf are the mean tumor weights of the treatment and control groups, respectively, on day f, and Xo and Yo are the mean tumor weights of treatment and control groups respectively, on day zero (staged tumor weights after grouping)

[15] = molecular target: T7, Serotonin Transporter (Homo sapiens, UniProt P31645); assay: NovaScreen assay; type: binding
T7 construct: NovaScreen
T7 sequence (P31645 whole entry): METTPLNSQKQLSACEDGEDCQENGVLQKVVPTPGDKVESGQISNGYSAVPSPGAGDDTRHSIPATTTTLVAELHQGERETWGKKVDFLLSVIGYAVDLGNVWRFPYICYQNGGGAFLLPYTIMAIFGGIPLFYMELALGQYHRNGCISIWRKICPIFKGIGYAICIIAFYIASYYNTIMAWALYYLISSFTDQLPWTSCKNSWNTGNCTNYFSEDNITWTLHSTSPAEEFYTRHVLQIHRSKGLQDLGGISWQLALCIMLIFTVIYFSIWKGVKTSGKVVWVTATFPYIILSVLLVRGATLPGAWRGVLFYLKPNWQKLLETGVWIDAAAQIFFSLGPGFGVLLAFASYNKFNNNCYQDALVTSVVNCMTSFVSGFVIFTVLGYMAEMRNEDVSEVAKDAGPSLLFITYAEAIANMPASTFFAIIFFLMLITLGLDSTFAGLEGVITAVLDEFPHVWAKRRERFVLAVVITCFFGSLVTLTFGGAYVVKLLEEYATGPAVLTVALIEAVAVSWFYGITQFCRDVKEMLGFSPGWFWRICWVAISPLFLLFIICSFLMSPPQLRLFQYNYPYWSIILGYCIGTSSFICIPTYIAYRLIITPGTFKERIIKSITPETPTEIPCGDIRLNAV

[16] = molecular target: EphA2 (Homo sapiens, UniProt P29317); assay: EphA2 autophosphorylation ELISA, PC-3 cells; type: cell-based; conditions: read-out: Cellular IC50, autophosphorylation
Target sequence in this assay (P29317 24-976): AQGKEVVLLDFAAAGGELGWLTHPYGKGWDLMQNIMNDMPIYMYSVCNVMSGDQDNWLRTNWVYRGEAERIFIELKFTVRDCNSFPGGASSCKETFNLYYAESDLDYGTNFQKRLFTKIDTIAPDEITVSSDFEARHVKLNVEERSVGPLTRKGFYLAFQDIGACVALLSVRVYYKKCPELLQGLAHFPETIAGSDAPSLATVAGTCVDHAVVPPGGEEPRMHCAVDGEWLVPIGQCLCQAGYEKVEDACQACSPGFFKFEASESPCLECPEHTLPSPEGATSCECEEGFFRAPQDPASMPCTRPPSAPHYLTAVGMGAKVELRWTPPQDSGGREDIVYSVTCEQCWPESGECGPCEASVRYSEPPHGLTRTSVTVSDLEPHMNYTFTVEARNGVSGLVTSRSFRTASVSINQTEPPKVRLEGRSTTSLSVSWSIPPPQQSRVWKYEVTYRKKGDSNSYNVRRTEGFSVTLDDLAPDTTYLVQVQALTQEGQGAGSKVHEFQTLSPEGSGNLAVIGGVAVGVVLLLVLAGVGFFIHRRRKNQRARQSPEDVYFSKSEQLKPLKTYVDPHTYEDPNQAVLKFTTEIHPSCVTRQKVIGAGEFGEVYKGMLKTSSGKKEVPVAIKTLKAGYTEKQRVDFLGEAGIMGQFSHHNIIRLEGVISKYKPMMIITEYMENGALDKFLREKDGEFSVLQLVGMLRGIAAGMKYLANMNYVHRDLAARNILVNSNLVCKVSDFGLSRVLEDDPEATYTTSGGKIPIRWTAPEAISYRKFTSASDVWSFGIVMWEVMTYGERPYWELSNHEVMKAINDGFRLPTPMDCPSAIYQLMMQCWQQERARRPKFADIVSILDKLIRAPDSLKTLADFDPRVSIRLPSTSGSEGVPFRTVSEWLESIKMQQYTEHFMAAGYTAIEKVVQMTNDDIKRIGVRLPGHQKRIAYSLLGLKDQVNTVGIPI
Protocol: The EphA2 autophosphorylation ELISA utilized PC-3 (ATCC) cells. Cells were seeded at 2.5×10^4 cells/well onto 96-well microtiter plates (Costar 3904), in DMEM (Cellgro) containing 10% FBS (Heat-Inactivated, Hyclone), 1% penicillin-streptomycin (Cellgro), and 1% NEAA solution (Cellgro). The cells were then incubated at 37° C., 5% CO2 for 16 h. Growth media was replaced with serum-free DMEM and cells were incubated for an additional 24 hr. […] Negative control wells were not treated with growth factor. After treatment, media was removed, the cell monolayer washed with cold PBS and immediately lysed with cold lysis buffer. Lysates were centrifuged and incubated into 96-well streptavidin-coated plates (Pierce) coated with biotin-conjugated, mouse anti-phosphotyrosine, PY20 (2 μg/ml, Calbiochem). Plates were incubated with rabbit polyclonal anti-EphA2, C-20 (1:500, Santa Cruz Biotechnology, Inc), followed by secondary antibody (HRP-conjugated, goat anti-rabbit IgG, 1:1000 from Cell Signaling) and the addition of a luminol-based substrate solution. Plates were read with a Victor spectrophotometer (Wallac).

[17] = test system: Glutamate, Kainate Site; assay: NovaScreen assay; type: binding
[18] = molecular target: Flt-4 (Homo sapiens, UniProt P35916); assay: AlphaScreen tyrosine kinase assay; type: biochemical; set-up: residues D725-R1298 of human Flt-4, Proqinase; purchased Proqinase; conditions: ATP at Km
Chain of Flt-4 (P35916 725-1298 isoform P35916-1): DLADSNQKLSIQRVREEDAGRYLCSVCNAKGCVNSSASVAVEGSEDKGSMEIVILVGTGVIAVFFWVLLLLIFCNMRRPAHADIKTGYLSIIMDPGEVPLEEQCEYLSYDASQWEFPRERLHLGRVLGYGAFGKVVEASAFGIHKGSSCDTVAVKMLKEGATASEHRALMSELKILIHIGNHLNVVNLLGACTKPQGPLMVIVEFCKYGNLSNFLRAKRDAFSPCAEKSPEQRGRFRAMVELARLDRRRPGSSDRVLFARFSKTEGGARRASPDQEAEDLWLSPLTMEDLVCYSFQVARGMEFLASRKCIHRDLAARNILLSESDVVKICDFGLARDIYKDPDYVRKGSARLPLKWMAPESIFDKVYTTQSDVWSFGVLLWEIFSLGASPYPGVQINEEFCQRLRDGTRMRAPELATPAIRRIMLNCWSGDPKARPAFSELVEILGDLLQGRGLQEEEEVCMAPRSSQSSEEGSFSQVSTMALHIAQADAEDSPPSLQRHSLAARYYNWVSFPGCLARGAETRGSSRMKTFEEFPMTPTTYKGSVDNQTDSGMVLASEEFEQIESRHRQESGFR
Protocol: Dose-response experiments were done using 10 different inhibitor concentrations in 384-well microtiter plates. The ATP concentration used for each assay was equivalent to the Km for each kinase. IC50 values were calculated by nonlinear regression analysis using the four-variable equation: Y=min+(max−min)/[1+([I]/IC50)N], where Y is the observed signal, [I] is the inhibitor concentration, min is the background signal in the absence of enzyme (0% enzyme activity), max is the signal in the absence of inhibitor (100% enzyme activity), IC50 is the inhibitor concentration required at 50% enzyme inhibition, and N represents the empirical Hill slope as a measure of cooperativity.
An AlphaScreen tyrosine kinase assay was used to measure ErbB2 and Flt-4 activity. Donor beads coated with streptavidin and acceptor beads coated with PY100 anti-phosphotyrosine antibody (Perkin-Elmer) were used. Biotinylated poly(Glu,Tyr) 4:1 was used as the substrate. Substrate phosphorylation was measured by luminescence following donor-acceptor bead addition followed by complex formation. […] After 2 to 16 h of incubation at room temperature, plates were read using an AlphaQuest reader (Perkin-Elmer).

[19] = test system: Galanin, Non-Selective; assay: NovaScreen assay; type: binding
[20] = 7.5 mg/kg/day, PN Day 90, 7.5 mg/kg/day
[21] = 7.5 mg/kg/day, PN Day 90, listed as PRIM-001, 7.5 mg/kg/day
[22] = 15 mg/kg/day, PN Day 90, 15 mg/kg/day
[23] = 15 mg/kg/day, PN Day 90, listed as PRIM-001, 15 mg/kg/day
[24] = read-out: Inhibition, 10 μM XL-647

T1 sequence (P30559 whole entry): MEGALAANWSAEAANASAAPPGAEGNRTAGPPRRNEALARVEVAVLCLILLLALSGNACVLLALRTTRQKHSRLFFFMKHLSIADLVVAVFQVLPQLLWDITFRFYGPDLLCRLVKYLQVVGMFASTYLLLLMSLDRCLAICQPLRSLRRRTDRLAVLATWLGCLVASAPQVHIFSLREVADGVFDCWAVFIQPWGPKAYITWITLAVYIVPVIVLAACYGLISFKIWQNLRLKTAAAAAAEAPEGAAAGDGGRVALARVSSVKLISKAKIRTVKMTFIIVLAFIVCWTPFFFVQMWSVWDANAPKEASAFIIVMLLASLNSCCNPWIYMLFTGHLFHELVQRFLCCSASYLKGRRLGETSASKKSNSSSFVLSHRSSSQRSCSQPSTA

For `COc1cc2c(Nc3ccc(Cl)c(Cl)c3F)ncnc2cc1OC[C@@H]1C[C@@H]2CN(C)C[C@@H]2C1` [XL-647, N-(3,4-dichloro-2-fluorophenyl)-7-({[(3aR,5r,6aS)-2-methyloctahydrocyclopenta[c]pyrrol-5-yl]methyl}oxy)-6-(methyloxy)quinazolin-4-amine], the inhibition at 10 µM [1] was -2.59%, the “decrease of BUN level” value ([2]; 7.5 mg/kg q.d.) was 19.2% and the “decrease of kidney weight” value ([2]; 7.5 mg/kg q.d.) was 13.4%. For the same molecule, the “reduction of CT-CI” value ([2]; 7.5 mg/kg q.d.) was 19.6%, the CT-CI ([2]; 7.5 mg/kg/day) was 5.63 and the Creatinine ([2]; 7.5 mg/kg/day) was 0.48 ± 0.09 mg/dL. For the same molecule, the Kidney/Body weight ([2]; 7.5 mg/kg/day) was 1.5%, the BUN [2, 20] was 27.50 ± 3.74 mg/dL and the “Kidney Weight” value [2, 20] was 5.77 ± 0.47 g. The BUN [2, 21] was 27.50 ± 3.74 mg/dL, the “Kidney Weight” value [2, 21] was 5.77 g and the “decrease of BUN level” value ([2]; 15 mg/kg q.d.) was 28.8%. For the same molecule, the “decrease of kidney weight” value ([2]; 15 mg/kg q.d.) was 26.0%, the “reduction of CT-CI” value ([2]; 15 mg/kg q.d.) was 35.7% and the CT-CI ([2]; 15 mg/kg/day) was 4.50. It also gave a Creatinine ([2]; 15 mg/kg/day) of 0.46 ± 0.07 mg/dL, a Kidney/Body weight ([2]; 15 mg/kg/day) of 1.31% and a BUN [2, 22] of 24.25 ± 4.3 mg/dL. The “Kidney Weight” value [2, 22] was 4.93 ± 0.42 g, the BUN [2, 23] was 24.25 ± 4.30 mg/dL and the “Kidney Weight” value [2, 23] was 4.93 g. The “deaths attributed to study drug” value [3] was “no deaths attributed to study drug”, the inhibition at 10 µM [4] was 32.8% and the “Inhibition, 10 μM XL-647” value [5] was 12.95%. For the same molecule, the IC50 [6] was 2480 nM, the inhibition at 10 µM [6, 24] was 87.1% and the inhibition at 10 µM [7] was 4.59%. The IC50 [8] was 12 nM, the inhibition at 10 µM [9] was -5.38% and the IC50 [10] was 6.8 ± 0.8 nM. For the same molecule, the “CYP3A4 inhibition, in words” value [11] was “but not CYP3A4”, the “Inhibition, 10 μM XL-647” value [12] was −1.66% and the “AUC increase in the presence of food” value [13] was “approximately 18%”. The “Cmax increase in the presence of food” value [13] was “about 5%”, the ED50 [14] was under 3 mg/kg and the IC50 [15] was 188 nM. The inhibition at 10 µM [15, 24] was 101%, the IC50 [16] was 1100 nM and the “Inhibition, 10 μM XL-647” value [17] was 0.89%. For the same molecule, the IC50 [18] was 8.7 ± 0.6 nM and the “Inhibition, 10 μM XL-647” value [19] was 1.57%.

Source: patent US9364479B2, “Use of a receptor-type kinase modulator for treating polycystic kidney disease” (SYMPHONY EVOLUTION, INC., priority 2010, dated 2016)
